Assay results from PubChem BioAssay (NCI).
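In this assay, cells in 96-well plates receive the compound at five concentrations for 48 hours. Endpoints are linearly interpolated between the surrounding concentrations. Here, GI50 denotes the concentration required for 50% inhibition of growth. Definition used: TGI = concentration required for complete inhibition of growth.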

What was measured:
Test in all cases: NCI tumour cell line growth inhibition, 48 h
MALME-3M melanoma = test system: MALME-3M melanoma
UACC-62 melanoma = test system: UACC-62 melanoma
HT29 colon = test system: HT29 colon
HCT-15 colon = test system: HCT-15 colon
OVCAR-5 ovarian = test system: OVCAR-5 ovarian
OVCAR-3 ovarian = test system: OVCAR-3 ovarian
UACC-257 melanoma = test system: UACC-257 melanoma
SR leukemia = test system: SR leukemia
M14 melanoma = test system: M14 melanoma
IGROV1 ovarian = test system: IGROV1 ovarian
HOP-92 NSCLC = test system: HOP-92 NSCLC
HOP-62 NSCLC = test system: HOP-62 NSCLC
PC-3 prostate = test system: PC-3 prostate
SF-539 CNS = test system: SF-539 CNS
UO-31 renal = test system: UO-31 renal
CCRF-CEM leukemia = test system: CCRF-CEM leukemia
HCC-2998 colon = test system: HCC-2998 colon
SK-MEL-28 melanoma = test system: SK-MEL-28 melanoma
A549 NSCLC = test system: A549 NSCLC
786-0 renal = test system: 786-0 renal
COLO 205 colon = test system: COLO 205 colon
MDA-MB-231 breast = test system: MDA-MB-231 breast
T-47D breast = test system: T-47D breast
TK-10 renal = test system: TK-10 renal
ACHN renal = test system: ACHN renal
MOLT-4 leukemia = test system: MOLT-4 leukemia
RPMI-8226 leukemia = test system: RPMI-8226 leukemia
K-562 leukemia = test system: K-562 leukemia
MDA-MB-435 = test system: MDA-MB-435
A498 renal = test system: A498 renal
NCI-H522 lung = test system: NCI-H522 lung
SW-620 colon = test system: SW-620 colon
CAKI-1 renal = test system: CAKI-1 renal
HS 578T breast = test system: HS 578T breast
NCI-H460 lung = test system: NCI-H460 lung
SK-OV-3 ovarian = test system: SK-OV-3 ovarian
LOX IMVI melanoma = test system: LOX IMVI melanoma
EKVX NSCLC = test system: EKVX NSCLC
RXF 393 renal = test system: RXF 393 renal
KM12 colon = test system: KM12 colon
DU-145 prostate = test system: DU-145 prostate
BT-549 breast = test system: BT-549 breast
NCI-H226 lung = test system: NCI-H226 lung
OVCAR-8 ovarian = test system: OVCAR-8 ovarian
SF-295 CNS = test system: SF-295 CNS
MCF7 breast = test system: MCF7 breast
SK-MEL-2 melanoma = test system: SK-MEL-2 melanoma
NCI-H23 lung = test system: NCI-H23 lung
NCI/ADR-RES ovarian = test system: NCI/ADR-RES ovarian
SNB-75 CNS = test system: SNB-75 CNS
HCT-116 colon = test system: HCT-116 colon
HL-60(TB) leukemia = test system: HL-60(TB) leukemia
OVCAR-4 ovarian = test system: OVCAR-4 ovarian
SN12C renal = test system: SN12C renal
SF-268 CNS = test system: SF-268 CNS
U251 CNS = test system: U251 CNS
SNB-19 CNS = test system: SNB-19 CNS

## Oc1[nH]c2ccc(Cl)cc2c1/C=c1/ccc2c(c1)N=C(c1ccc(F)cc1)N=2
MALME-3M melanoma
  GI50: 1830 nM
  TGI: 3.95 µM
UACC-62 melanoma
  GI50: 2500 nM
  TGI: 8.06 µM
HT29 colon
  GI50: 1930 nM
  TGI: 3.5 µM
HCT-15 colon
  GI50: 2040 nM
  TGI: 4.47 µM
OVCAR-5 ovarian
  GI50: 4.17 µM
  TGI: 14.7 µM
OVCAR-3 ovarian
  GI50: 1920 nM
  TGI: 3.58 µM
UACC-257 melanoma
  GI50: 1890 nM
  TGI: 4.35 µM
SR leukemia
  GI50: 2110 nM
  TGI: 5.14 µM
M14 melanoma
  GI50: 1520 nM
  TGI: 2980 nM
IGROV1 ovarian
  GI50: 2120 nM
  TGI: 4.42 µM
HOP-92 NSCLC
  GI50: 11.7 µM
  TGI: 26.9 µM
HOP-62 NSCLC
  GI50: 1770 nM
  TGI: 3.23 µM
PC-3 prostate
  GI50: 2140 nM
  TGI: 5.65 µM
SF-539 CNS
  GI50: 2240 nM
  TGI: 5 µM
UO-31 renal
  GI50: 2300 nM
  TGI: 11 µM
CCRF-CEM leukemia
  GI50: 2070 nM
  TGI: 4.93 µM
HCC-2998 colon
  GI50: 4.68 µM
  TGI: 15.9 µM
SK-MEL-28 melanoma
  GI50: 1780 nM
  TGI: 3.48 µM
A549 NSCLC
  GI50: 1740 nM
  TGI: 3.61 µM
786-0 renal
  GI50: 1800 nM
  TGI: 3.9 µM
COLO 205 colon
  GI50: 2320 nM
  TGI: 5.23 µM
MDA-MB-231 breast
  GI50: 1630 nM
  TGI: 4.18 µM
T-47D breast
  GI50: 2230 nM
  TGI: 6.17 µM
TK-10 renal
  GI50: 2830 nM
  TGI: 4.88 µM
ACHN renal
  GI50: 3.19 µM
  TGI: 11.9 µM
MOLT-4 leukemia
  GI50: 2520 nM
  TGI: 7.1 µM
RPMI-8226 leukemia
  GI50: 2910 nM
  TGI: 12.2 µM
K-562 leukemia
  GI50: 2110 nM
  TGI: 4.48 µM
MDA-MB-435
  GI50: 1620 nM
  TGI: 3.45 µM
A498 renal
  GI50: 3.36 µM
  TGI: 16.5 µM
NCI-H522 lung
  GI50: 1990 nM
  TGI: 4.32 µM
SW-620 colon
  GI50: 1890 nM
  TGI: 3.74 µM
CAKI-1 renal
  GI50: 4.08 µM
  TGI: 20.3 µM
HS 578T breast
  GI50: 2310 nM
  TGI: 7.51 µM
NCI-H460 lung
  GI50: 2050 nM
  TGI: 4.52 µM
SK-OV-3 ovarian
  GI50: 7.07 µM
  TGI: 19.1 µM
LOX IMVI melanoma
  GI50: 1630 nM
  TGI: 3.01 µM
EKVX NSCLC
  GI50: 3.37 µM
  TGI: 15.9 µM
RXF 393 renal
  GI50: 1890 nM
  TGI: 3.72 µM
KM12 colon
  GI50: 2540 nM
  TGI: 6.53 µM
DU-145 prostate
  GI50: 2530 nM
  TGI: 5.06 µM
BT-549 breast
  GI50: 1380 nM
  TGI: 3.11 µM
NCI-H226 lung
  GI50: 8.22 µM
  TGI: 23.2 µM
OVCAR-8 ovarian
  GI50: 1960 nM
  TGI: 4.26 µM
SF-295 CNS
  GI50: 7.02 µM
  TGI: 30.6 µM
MCF7 breast
  GI50: 1330 nM
  TGI: 2830 nM
SK-MEL-2 melanoma
  GI50: 2870 nM
  TGI: 6.81 µM
NCI-H23 lung
  GI50: 1650 nM
  TGI: 3.59 µM
NCI/ADR-RES ovarian
  GI50: 1870 nM
  TGI: 3.58 µM
SNB-75 CNS
  GI50: 1500 nM
  TGI: 3.78 µM
HCT-116 colon
  GI50: 1490 nM
  TGI: 2810 nM
HL-60(TB) leukemia
  GI50: 2760 nM
  TGI: 7.83 µM
OVCAR-4 ovarian
  GI50: 1640 nM
  TGI: 3.1 µM
SN12C renal
  GI50: 2710 nM
  TGI: 10.2 µM
SF-268 CNS
  GI50: 2160 nM
  TGI: 4.37 µM
U251 CNS
  GI50: 1810 nM
  TGI: 3.5 µM
SNB-19 CNS
  GI50: 2080 nM
  TGI: 5.14 µM
